The results in this text go back to patent US20100068747A1, “Generic Assay for Monitoring Endocytosis” (Evotec Technologies GmbH, priority 2005, published 2010).

In one experiment the test system is CHO/PAR-2 cells. The experiment in a line: Lectin labeling of live cells, CHO/PAR-2. Format: cell-based. The conditions noted are these: TRITC-lectin, 10 nM at maximum. As for the experimental part:
Lectin labeling of live cells was conducted as follows: Cells were seeded as described above. After 24 hours cells were washed once with PBS and incubated in the incubator for another 2 hours in the respective standard medium without serum supplement to deprive them of serum factor mediated stimuli. This step was termed starvation period. Subsequently, cells were washed gently with PBS and incubated with 37° C. tempered assay medium comprised of Hank's Balanced Salt Solution (HBSS) pH 7.4, containing 20 mM HEPES and 30 mM D-glucose. The plate was left at RT for 30 minutes to slowly level its temperature and, thus, avoid capturing of temperature drop induced membrane dynamics. This period was termed leveling period. Then, assay medium was withdrawn and wells refilled with TRITC-lectin solutions at RT to start cell labeling. Several lectin concentrations in the low nano-molar range were tested. Molar concentrations were calculated from the data provided by Vector Labs. The plate was placed on a rotating shaker at low revolutions for 10 minutes while incubating. The start of the lectin incubation is referred to as assay starting point with t=0 min. After the 10 min incubation period the cells were gently washed with PBS and wells refilled with assay buffer at RT. Instantly thereafter, fluorescence signals were monitored predominately using the epifluorescence microscope.
(§1) The following microscopy and image analysis techniques were employed. When utilizing the epifluorescence microscope magnifications were adjusted according to the purpose of observation, e.g. single cell vs. cell collective. Concerning the filters U-MNU was used for Hoechst, U-MSWB for GFP, and U-N41007 for TRITC detection. Hoechst images were taken at 50 ms exposure time, GFP images at 100 to 200 ms and TRITC images needed 500 to 1000 ms. Overlay images were assembled with AnalySIS and tuned in color intensity to obtain the desired color contrast. Images taken to compare two experimental conditions, e.g. control vs. stimulus, featured identical exposure parameters. If possible, well areas were chosen that reflect similar states of confluence. Utilizing the Opera confocal fluorescence imager, the instrument was calibrated running standard methods for skew cropping (spatial camera alignments) and camera intensity normalization.

In the next experiment the test system is CHO/ETAR cells. The experiment in a line: Lectin labeling of fixed cells, CHO/ETAR. Format: cell-based. The conditions noted are these: TRITC-lectin 10 nM and 20 nM. The protocol:
Lectin labeling of fixed cells was conducted as follows: To detach confluent cells in order to prepare experiments for internalization studies, cells were always treated with EDTA solution instead of trypsin solution. For all seeding, washing, and labeling steps in 96-well plates a working volume of 100 μl per well was assessed. Cells were seeded out into a 96-well plate at different concentrations. U2OS/ETAR-GFP suspensions were adjusted to yield 2*10^4 cells/well, both of the CHO cell lines must be at 2.5*10^4 cells/well. Cells became confluent after 24 hours of incubation. In the following, they were washed with phosphate buffered saline (PBS) and fixed with 3% PFA for 20 minutes at RT. Then, cells were washed again with PBS and incubated in 10 nM and 20 nM solutions of each TRITC-lectin candidate in PBS, respectively. Again, cells were washed with PBS to remove excess lectin, and wells were refilled with PBS for analysis. For specificity controls, lectin solutions were incubated for 30 minutes prior to the application with an excess of the monosaccharide that represents the respective glyco-epitope.
as §1

Experiment [1] deals with T1, endothelin A receptor (ETAR) (Homo sapiens, UniProt P25101).
T1 construct: expressed in transfected cells; host or cells: CHO-K1 cell line clone #19, prepared in-house
T1 sequence (P25101 21-427): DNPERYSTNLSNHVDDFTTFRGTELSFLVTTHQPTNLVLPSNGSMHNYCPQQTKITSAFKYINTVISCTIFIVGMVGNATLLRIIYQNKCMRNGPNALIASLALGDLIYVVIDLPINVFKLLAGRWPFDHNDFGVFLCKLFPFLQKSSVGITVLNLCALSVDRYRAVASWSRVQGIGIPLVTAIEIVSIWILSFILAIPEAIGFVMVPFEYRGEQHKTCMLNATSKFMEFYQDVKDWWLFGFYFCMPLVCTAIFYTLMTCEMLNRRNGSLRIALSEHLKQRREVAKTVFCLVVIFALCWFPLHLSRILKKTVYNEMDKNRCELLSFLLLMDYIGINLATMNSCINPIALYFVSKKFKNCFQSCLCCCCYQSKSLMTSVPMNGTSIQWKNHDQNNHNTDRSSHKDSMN
Briefly: Lectin labeling of live cells with receptor targeted stimulation, CHO/ETAR. Format: cell-based, Chinese hamster. The conditions noted are these: endothelin 1 stimulation. The protocol: With regard to lectin labeling of live cells with receptor target stimulation, lyophilized PAR-2 peptide was resuspended in 20 mM HEPES with 0.1% BSA at 4 mM. […] The live cell labeling protocol was applied as described above. Additionally, endothelin and PAR-2 agonist peptide were added to the assay medium employed after the lectin labeling step at concentrations of 40 nM and 100 μM, respectively. For controls, same amount of resuspension liquid without agonist was supplemented. Instantly, fluorescence signals were monitored.

With “succinylated Triticum vulgaris (wheat germ) agglutin [sWGA]”, the “Live cell staining of CHO/PAR-2” value in the experiment with CHO/PAR-2 cells was “spot formation”. Besides, the “Staining of CHO/ETAR” value with CHO/ETAR cells is reported as “cell surface”. The “early spot formation, time after stimulation” value in experiment [1] is 20 to 30 min.
